pKi: −log10 of the molar value.
Legend:
human NK-2 receptor = human NK-2 receptor (Homo sapiens (Human), UniProt P21452); assay: Selectivity assay: [125I]-Neurokinin A binding, human NK-2 receptor; conditions: 0.1 nM [125I]-Neurokinin A, CHO membranes; read-out: hNK-2 (Ki)
Experimental: The affinity of compounds of the invention for the NK-2 receptor was evaluated in CHO recombinant cells which express the human NK-2 receptor. Membrane suspensions were prepared from these cells. […] Binding assays were performed in a 25 mM HEPES/1 mM CaCl2)/5 mM MgCl2/0.5% BSA/10 μg/ml saponin, at pH 7.4. […] The radioactivity retained on the filters was measured by using the TopCount-NXT reader (Packard).

[1] = system: circulating levels of luteinizing hormone (LH); assay: Castrated male rat model, circulating luteinizing hormone (LH); assay type: in vivo; conditions: single oral dose less than or equal to 30 mg/kg, p<0.05
Experimental: Castrated Male Rat Model to Assess the Effect of Compound of Invention on Circulating Levels of Luteinizing Hormone (LH)
The effect of compounds of the invention to inhibit luteinizing hormone (LH) secretion is determined by the following biological studies.
In humans and rodents, castration is well-precedented to permit heightened, persistent GnRH signaling and consequent elevation of circulating LH. Thus, a castrated rat model is used to provide a broad index for measurement of LH inhibition as a marker of test compound inhibition of the GnRH signaling pathway.
Castrated adult male Sprague-Dawley (SD) rats (150-175 g,) were purchased from Janvier (St Berthevin, France). All animals were housed 2 per cage in a temperature-controlled room (22±2° C.) and 50±5% relative humidity with a 12 hour/12 hour light/dark cycles (lights off at […]). The animals were allowed 3 weeks of postoperative recovery prior to study. Animals were handled on a daily basis. Standard diet and tap water were provided ad libitum. Animal cage litters were changed once a week. On the study day, animals were acclimated to the procedure room for a period of one hour prior to the initiation of the experiment.
Compounds of the invention were formulated in 0.5% methyl cellulose.
After basal sampling (TO) a single dose of compounds of the invention or vehicle was administrated orally to rats. Blood samples were then collected at several time points post dosing (45, 90, 150, 300 and 420 minutes). Blood samples were obtained via tail vein bleed, drawn into EDTA-containing tubes and centrifuged immediately. Plasma samples were collected and stored in a −80° C. freezer until assayed. Serum LH levels were determined using radioimmunoassay kit from RIAZEN—Rat L H, Zentech (Liege, Belgium). Baseline was defined as the initial basal blood sample.

plasma estradiol = assay: Estradiol circulating level in female rats; assay type: in vivo, rat; conditions: 10 mg/kg b.i.d. oral, 10 days, FIG. 3
Experimental: Effect of compounds of the invention on Estradiol circulating level in female rats The aim of this study was to evaluate the effect of compounds of the invention on plasma estradiol levels following oral administration at 10 mg/kg (b.i.d.) for a period of 10 days in female rats.
Briefly the experimental methods used for this study were as follows: Two groups of adult, female rats (Sprague-Dawley, ˜320 g) were treated in-phase with their individual estrous cycles. Thus, treatment was started in the proestrus phase (coincident with peak estradiol levels, as shown on Day 1 in FIG. 3) and rats were dosed twice daily (˜9 h30 and 17 h30) by oral administration either with a compound of the invention at 10 mg/kg or with the vehicle for the control group. Compounds of the invention were prepared in a dose formulation of pyrogen-free water with 0.5% methylcellulose. Estradiol levels were determined for all groups by ELISA performed on plasma samples derived from blood collections taken at 30 minutes before the daily, 9 h30 test article administration on all days presented in FIG. 3.

[2] = system: serum Total Testosterone, LH, FSH in women with PCOS; assay: Phase 2a clinical trial, PolyCystic Ovary Syndrome (PCOS); assay type: in vivo, human
Experimental: Clinical Evaluation of Compound n^o 5 for the Treatment of PolyCystic Ovary Syndrome (PCOS)
Objectives: The study objectives are to evaluate the effect of compound n^o 5 on the serum levels of Total Testosterone (TT), Luteinizing Hormone (LH), Follicle Stimulating Hormone (FSH) and LH:FSH ratio after 12 weeks of treatment.
Design and Setting: The Phase 2a clinical trial was conducted in 48 patients, divided over 2 treatment groups of 24 patients each. One group received placebo while the other group received 180 mg of compound n^o 5 once daily (QD) for a period of 12 weeks. The Phase 2a trial was double blind and randomized. […] The study was conducted on an ambulatory basis where patients were asked to visit the clinical site on the first day of dosing and at weeks 3, 6, 9 and 12 during the treatment period with a follow-up visit 2-3 weeks after conclusion of dosing.
Blood draws for LH, FSH and TT were taken every visit between 2 and 8 hours after drug intake (baseline and week 3-6-12). At week 9 the blood samples were taken in the morning before drug intake (i.e. at trough PK concentrations for compound n^o 5). These blood draws were the basis for assessing the primary (TT) and secondary (LH, FSH, LH:FSH ratio) endpoints. The primary endpoint of Total Testosterone was measured according to GLP using an LC-MS/MS method.
PCOS is typically characterized by excessive ovarian androgen production, failure of ovulation, and slightly enlarged ovaries with numerous peripheral small follicles that appear as cysts. The disorder is commonly accompanied by infertility. Typically, the clinical features of PCOS are associated with hypersecretion of LH and androgens (TT) but with normal serum concentrations of FSH hormone. Laboratory examinations reveal elevated TT levels in about 50% of the patients, accompanied by an elevated LH:FSH ratio (>2) due to the imbalanced secretion of both hormones (a ratio of 1 is considered normal).

Sequence of human NK-2 receptor (P21452 whole entry): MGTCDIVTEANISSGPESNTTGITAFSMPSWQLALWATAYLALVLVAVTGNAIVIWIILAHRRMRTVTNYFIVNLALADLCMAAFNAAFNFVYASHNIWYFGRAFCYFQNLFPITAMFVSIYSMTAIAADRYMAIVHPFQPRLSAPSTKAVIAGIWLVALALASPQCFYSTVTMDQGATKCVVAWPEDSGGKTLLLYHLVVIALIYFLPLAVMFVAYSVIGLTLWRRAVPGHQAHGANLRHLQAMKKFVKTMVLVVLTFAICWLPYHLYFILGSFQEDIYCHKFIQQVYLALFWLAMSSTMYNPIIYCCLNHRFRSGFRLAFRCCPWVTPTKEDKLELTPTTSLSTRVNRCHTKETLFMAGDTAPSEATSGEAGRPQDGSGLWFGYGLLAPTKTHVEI

For Cc1nsc(-c2nnc3n2CCN(C(=O)c2ccc(F)cc2)[C@@H]3C)n1 [Compound 5, (R)-(4-fluorophenyl)(8-methyl-3-(3-methyl-1,2,4-thiadiazol-5-yl)-5,6-dihydro-[1,2,4]triazolo[4,3-a]pyrazin-7(8H)-yl)methanone], the pKi (human NK-2 receptor) was less than 4.52, the “circulating LH levels” value [1] was “significantly suppressed” and the estradiol levels (plasma estradiol) was “significantly decreased”. For the same compound, the FSH secretion ([2]; 180 mg QD, women with PCOS) was “preserved”, the LH ([2]; 180 mg QD, women with PCOS) was “significant decrease” and the “LH:FSH in comparison of placebo” value ([2]; 180 mg QD, women with PCOS) was “significantly reduced”. For the same compound, the “TT in comparison of placebo” value ([2]; 180 mg QD, women with PCOS) was “significantly reduced”, the “Total Testosterone (mean)” value ([2]; Baseline, 180 mg QD group) was 2.16 nmol/L and the “Total Testosterone (mean)” value ([2]; Week 6, 180 mg QD oral) was 1.41 nmol/L. For the same compound, the “Total Testosterone (mean)” value ([2]; Week 12, 180 mg QD oral) was 1.39 nmol/L.

From US20240199618A1, “NOVEL N-ACYL-[3-SUBSTITUTED]-[8-SUBSTITUTED]-5,6-DIHYDRO-[1,2,4]TRIAZOLO[4,3-a]PYRAZINES AS SELECTIVE NK-3 RECEPTOR ANTAGONISTS, PHARMACEUTICAL COMPOSITION, METHODS FOR USE IN NK-3 RECEPTOR-MEDIATED DISORDERS” (Ogeda SA, priority 2013, published 2024)
